Test results published in patent publication US20090143441A1, “Combination therapies of Thiazolidinedione analogues” (priority 2006, published 2009).
Entries after “also recorded” stand apart in the source; their conditions may differ.

Tests used:
[1] = tested on: normal male Sprague-Dawley rats with Medrol-induced hypertension; assay: Prevention of Medrol-induced hypertension, mean blood pressure by direct femoral arterial cannulation; format: in vivo; conditions: for Mean blood pressure, Fasted: after a 6 hour fast on day 8; for Mean blood pressure, Fasted / Mean blood pressure, Fed: daily dosing, Compound 1 40 mg/kg/day, Medrol 20 mg/kg/day, N=9, * p<0.05 less than Medrol-treated rats; for Mean blood pressure, Fed: fed conditions on day 7
Description: Hypertension was induced in normal male Sprague-Dawley rats by daily dosing with the glucocorticoid methylprednisolone (Medrol) for 8 days. Separate groups of rats received the vehicle (1% carboxymethylcellulose/0.01% Tween 20) by oral gavage and some of both the vehicle-treated and Medrol-treated rats also received daily doses of compound 1 as shown in Table C. Mean blood pressure was measured by direct femoral arterial cannulation under fed conditions on day 7 and after a 6 hour fast on day 8. The data are mean and (SEM) mean blood pressure obtained by direct cannulation. N=9; * p<0.05 less than blood pressure in Medrol-treated rats.

[2] = biological target: T1, PPARγ (Homo sapiens, UniProt P37231); assay: Commercial PPARγ binding assay (Invitrogen, PPAR-LBD/Fluormone PPAR Green complex); conditions: for PPARγ ligand binding (Fluormone displacement signal) / Activation of PPARγ: average (SEM) of three experiments in quadruplicate; for Binding to PPARγ (in words): summary of FIG. 1 and Table B
T1 construct: purchased Invitrogen Corporation, Carlsbad, Calif
T1 sequence (P37231 238-503 limits assumed): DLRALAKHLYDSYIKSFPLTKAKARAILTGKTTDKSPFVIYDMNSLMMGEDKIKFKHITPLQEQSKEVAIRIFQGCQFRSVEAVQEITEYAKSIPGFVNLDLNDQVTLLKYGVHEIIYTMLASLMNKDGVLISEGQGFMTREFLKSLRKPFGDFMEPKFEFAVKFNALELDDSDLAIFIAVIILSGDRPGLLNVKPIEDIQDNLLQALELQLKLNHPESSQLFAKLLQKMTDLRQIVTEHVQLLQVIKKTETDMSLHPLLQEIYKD
Description: The ability of several exemplary compounds of the present invention, shown in Table A, to bind to PPARγ was measured using a commercial binding assay (Invitrogen Corporation, Carlsbad, Calif.) that measures the test compounds ability to bind with PPAR-LBD/Fluormone PPAR Green complex. These assays were performed on three occasions with each assay using four separate wells (quadruplicate) at each concentration of tested compound. The data in Table B are average and SEM of three experiments, each of which were performed in quadruplicate on separate days. […] Compounds were added at the concentrations shown, which range from 0.1-100 micromolar.

Row | SMILES | PPARγ ligand binding (Fluormone displacement signal) ([2]; compound at 1 μM) | Activation of PPARγ ([2]; compound at 3 μM) | Activation of PPARγ ([2]; compound at 10 μM) | Activation of PPARγ ([2]; compound at 50 μM) | Activation of PPARγ ([2]; compound at 100 μM) | Activation of PPARγ ([2]; compound at .1 μM) | PPARγ ligand binding (Fluormone displacement signal) ([2]; compound at .3 μM) | PPARγ ligand binding (Fluormone displacement signal) ([2]; compound at 10 μM) | PPARγ ligand binding (Fluormone displacement signal) ([2]; compound at 50 μM) | PPARγ ligand binding (Fluormone displacement signal) ([2]; compound at 100 μM) | PPARγ ligand binding (Fluormone displacement signal) ([2]; compound at .1 μM) | PPARγ ligand binding (Fluormone displacement signal) ([2]; compound at 3 μM) | Activation of PPARγ ([2]; compound at .3 μM) | Activation of PPARγ ([2]; compound at 1 μM) | Mean blood pressure, Fasted [1] | Mean blood pressure, Fed [1] | Antihypertensive action (in words) ([1]; hypertension generated by treatment with a glucocorticoid, FIG. 2 and Table C) | Binding to PPARγ (in words) [2]
1 | CCc1ccc(C(=O)COc2ccc(CC3SC(=O)NC3=O)cc2)nc1 (centres unmarked) [Compound 1] | 223 (12) | 228 (6) | 207 (13) | 174 (28) | 170 (35) | 227 (1) | 232 (8) | – | – | – | – | – | – | – | 108 | 108 | unexpected antihypertensive action; also recorded: significantly lowered blood pressure | particularly poor binders to PPARγ
2 | CCc1ccc([C@@H](O)COc2ccc(CC3SC(=O)NC3=O)cc2)nc1 (some centres unmarked) [Compound 2] | 238 (12) | 236 (13) | – | – | – | – | 233 (15) | 223 (11) | 162 (8) | 136 (11) | 231 (15) | – | – | – | – | – | – | particularly poor binders to PPARγ; also recorded: PPARγ-sparing compound
3 | CCc1ccc(C(=CC(=O)OC)COc2ccc(CC3SC(=O)NC3=O)cc2)nc1 (centres unmarked) [Compound 3] | 203 (15) | 185 (17) | 134 (1) | 88 (6) | – | 226 (17) | 221 (10) | – | – | 77 (7) | – | – | – | – | – | – | – | –
4 | CCc1ccc(CCOc2ccc(CC3(C)SC(=O)NC3=O)cc2)nc1 (centres unmarked) [Compound 4] | 234 (11) | – | – | 122 (21) | – | 236 (13) | – | 200 (8) | – | 91 (11) | – | 224 (15) | 230 (14) | – | – | – | – | –
5 | CCc1ccc(C(O)COc2ccc(CC3(C)SC(=O)NC3=O)cc2)nc1 (centres unmarked) [Compound 5] | 228 (9) | – | – | – | – | – | 230 (10) | 212 (11) | 132 (12) | 106 (7) | 235 (8) | 226 (8) | – | – | – | – | – | –
6 | CCc1ccc(CCOc2ccc(CC3(C)SC(=O)NC3=O)cc2)nc1 (centres unmarked) [Compound 6] | 233 (11) | – | – | 126 (17) | – | – | 246 (9) | 198 (10) | – | 99 (12) | 246 (7) | 223 (7) | – | – | – | – | – | –
7 | CCc1ccc(CCOc2ccc(CC3(C)SC(=O)NC3=O)cc2)nc1 (centres unmarked) [Compound 7] | – | – | – | – | – | – | – | 210 (9) | 144 (15) | 105 (10) | 249 (9) | 237 (7) | 246 (5) | 248 (13) | – | – | – | –
8 | C[C@H]1C[C@@H]2[C@H]([C@@H](O)C[C@@]3(C)[C@H]2CC[C@]3(O)C(=O)CO)[C@@]2(C)C=CC(=O)C=C12 [Medrol, methylprednisolone, reference compound] | – | – | – | – | – | – | – | – | – | – | – | – | – | – | 122 | 123 | – | –

Now from value to compound, other results behind:

Row | PPARγ ligand binding (Fluormone displacement signal) ([2]; compound at 1 μM) | Activation of PPARγ ([2]; compound at 3 μM) | Activation of PPARγ ([2]; compound at 10 μM) | Activation of PPARγ ([2]; compound at 50 μM) | Activation of PPARγ ([2]; compound at 100 μM) | Activation of PPARγ ([2]; compound at .1 μM) | PPARγ ligand binding (Fluormone displacement signal) ([2]; compound at .3 μM) | PPARγ ligand binding (Fluormone displacement signal) ([2]; compound at 10 μM) | PPARγ ligand binding (Fluormone displacement signal) ([2]; compound at 50 μM) | PPARγ ligand binding (Fluormone displacement signal) ([2]; compound at 100 μM) | PPARγ ligand binding (Fluormone displacement signal) ([2]; compound at .1 μM) | PPARγ ligand binding (Fluormone displacement signal) ([2]; compound at 3 μM) | Activation of PPARγ ([2]; compound at .3 μM) | Activation of PPARγ ([2]; compound at 1 μM) | SMILES | Mean blood pressure, Fasted [1] | Mean blood pressure, Fed [1] | Antihypertensive action (in words) ([1]; hypertension generated by treatment with a glucocorticoid, FIG. 2 and Table C) | Binding to PPARγ (in words) [2]
9 | – | – | – | – | 186 (16) | 237 (6) | – | 233 (7) | 199 (15) | – | – | 241 (10) | 243 (5) | 239 (5) | CCc1ccc([C@@H](O)COc2ccc(CC3(C)SC(=O)NC3=O)cc2)nc1 (some centres unmarked) [Compound 8] | – | – | – | –
10 | – | – | – | 189 (19) | 164 (20) | 237 (5) | – | 234 (12) | – | – | – | 233 (9) | 237 (4) | 239 (13) | CCc1ccc([C@H](O)COc2ccc(CC3(C)SC(=O)NC3=O)cc2)nc1 (some centres unmarked) [Compound 9] | – | – | – | –
11 | – | – | 219 (5) | – | – | 245 (2) | – | – | 126 (3) | 93 (3) | – | 234 (3) | 239 (2) | 240 (2) | CCc1ccc(C(=O)COc2ccc(CC3(C)SC(=O)NC3=O)cc2)nc1 (centres unmarked) [Compound 10] | – | – | – | –
12 | 232 (12) | – | – | 128 (30) | – | – | 227 (9) | 165 (10) | – | 78 (3) | 230 (12) | 229 (10) | – | – | CCc1ccc(C(=CC(=O)OC)COc2ccc(CC3SC(=O)NC3=O)cc2)nc1 (centres unmarked) [Compound 11] | – | – | – | –
13 | – | – | – | 80 (2) | – | – | – | 112 (12) | – | 85 (3) | 243 (3) | 155 (8) | 222 (4) | 198 (6) | CCc1ccc(C(COc2ccc(CC3SC(=O)NC3=O)cc2)CC(=O)OC)nc1 (centres unmarked) [Compound 12] | – | – | – | –
14 | – | 230 (13) | – | 148 (23) | 108 (5) | – | 243 (10) | 204 (12) | – | – | 244 (9) | – | – | 229 (20) | CCc1ccc(C(=CCO)COc2ccc(CC3SC(=O)NC3=O)cc2)nc1 (centres unmarked) [Compound 13] | – | – | – | –
